Measurements taken from ChEMBL document CHEMBL1146988, “The spermicidal and antitrichomonas activities of SSRI antidepressants” (2006).

Each compound was assayed on Spermatozoa (assay: Spermicidal activity against human spermatozoa).
Format: functional

SMILES | MEC | ED50
Cl.NCCc1c[nH]c2ccc(O)cc12 [SEROTONIN HYDROCHLORIDE] | >1% | 
CCCCCCCCCc1ccc(OCCOCCOCCOCCOCCOCCOCCOCCOCCO)cc1 [NONOXYNOL 9] | 0.05% | 0.01%
Cl.Cl.Fc1ccc([C@@H]2CCNC[C@H]2COc2ccc3c(c2)OCO3)cc1.Fc1ccc([C@@H]2CCNC[C@H]2COc2ccc3c(c2)OCO3)cc1.O [PAROXETINE HYDROCHLORIDE] | 0.1% | 0.008%
COCCCC/C(=N\OCCN)c1ccc(C(F)(F)F)cc1.O=C(O)/C=C\C(=O)O [FLUVOXAMINE MALEATE] | 0.1% | 0.005%
CN[C@H]1CC[C@@H](c2ccc(Cl)c(Cl)c2)c2ccccc21.Cl [SERTRALINE HYDROCHLORIDE] | 0.5% | 

What follows are compounds tested on Trichomonas vaginalis (assay: Antitrichomonas activity against Trichomonas vaginalis after 48 hrs).
Format: functional

SMILES | MLC | MLC50
CCCCCCCCCc1ccc(OCCOCCOCCOCCOCCOCCOCCOCCOCCO)cc1 [NONOXYNOL 9] | 0.002% | 0.0009%
Cl.Cl.Fc1ccc([C@@H]2CCNC[C@H]2COc2ccc3c(c2)OCO3)cc1.Fc1ccc([C@@H]2CCNC[C@H]2COc2ccc3c(c2)OCO3)cc1.O [PAROXETINE HYDROCHLORIDE] | >0.01% | 
CNCCC(Oc1ccc(C(F)(F)F)cc1)c1ccccc1.Cl (stereo unspecified) [FLUOXETINE HYDROCHLORIDE] | 0.003% | 
COCCCC/C(=N\OCCN)c1ccc(C(F)(F)F)cc1.O=C(O)/C=C\C(=O)O [FLUVOXAMINE MALEATE] | 0.005% | 0.003%
CN[C@H]1CC[C@@H](c2ccc(Cl)c(Cl)c2)c2ccccc21.Cl [SERTRALINE HYDROCHLORIDE] | 0.003% | 0.0012%
